In ChEMBL document CHEMBL1201862, “PubChem BioAssay data set” (2004):
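Protocol summary: plate cells (96-well), add compound at 5 concentrations, incubate 48 h, interpolate endpoints linearly. GI50 marks 50% less growth.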 Calls of active or inactive are those of the source. Rule as the data show it: active = GI50 up to about 1.1 µM and inactive = higher.

Experiments:
Test in all cases: growth of human tumour cells (NCI), 48 h
RXF 631 = test system: RXF 631
SNB-78 = test system: SNB-78
DMS-114 = test system: DMS-114
DLD-1 = test system: DLD-1
M19-MEL = test system: M19-MEL
HOP-18 = test system: HOP-18
XF498 = test system: XF498
KM-20L2 = test system: KM-20L2

`O=C(CCC(=O)Nc1cccc(C(F)(F)F)c1)CC(=O)c1ccc2ccccc2c1` was tested, and the GI50 (RXF 631) was > 100 µM (inactive), the GI50 (SNB-78) was > 100 µM (inactive) and the GI50 (DMS-114) was > 100 µM (inactive). For the same compound, the GI50 (DLD-1) was > 100 µM (inactive), the GI50 (M19-MEL) was > 100 µM (inactive) and the GI50 (HOP-18) was > 100 µM (inactive). The GI50 (XF498) was > 100 µM (inactive) and the GI50 (KM-20L2) was > 100 µM (inactive).

In the case of `O=c1nc2sc3ccc4ccccc4c3n2nc1-c1ccccc1`, the GI50 (RXF 631) is reported as 36.6 µM (inactive), the GI50 (SNB-78) is reported as 35.8 µM (inactive) and the GI50 (DMS-114) is reported as > 100 µM (inactive). The GI50 (DLD-1) was 35.6 µM (inactive), the GI50 (M19-MEL) was 78.3 µM (inactive) and the GI50 (HOP-18) was 30.5 µM (inactive). For the same compound, the GI50 (XF498) was 29.6 µM (inactive) and the GI50 (KM-20L2) was 62.8 µM (inactive).

In the case of `COc1cc(C(=O)C/C(CCC(=O)Nc2ccccc2[N+](=O)[O-])=N\NC(N)=O)ccc1O`, the GI50 (RXF 631) is reported as > 100 µM (inactive), the GI50 (SNB-78) is reported as > 100 µM (inactive) and the GI50 (DMS-114) is reported as > 100 µM (inactive). The GI50 (M19-MEL) was > 100 µM (inactive), the GI50 (HOP-18) was 89.1 µM (inactive) and the GI50 (XF498) was 6.49 µM (inactive). For the same compound, the GI50 (KM-20L2) was > 100 µM (inactive).

With `O=C(CCc1ccccc1)NS(=O)(=O)c1ccccc1` the GI50 (RXF 631) was > 100 µM (inactive), the GI50 (DMS-114) was > 100 µM (inactive) and the GI50 (DLD-1) was > 100 µM (inactive). For the same compound, the GI50 (M19-MEL) was > 100 µM (inactive), the GI50 (HOP-18) was > 100 µM (inactive) and the GI50 (XF498) was > 100 µM (inactive). For the same compound, the GI50 (KM-20L2) was > 100 µM (inactive).

For `Cc1ccccc1NC(=O)C(=O)Cc1nc2ccccc2s1`, the GI50 (RXF 631) was > 100 µM (inactive), the GI50 (SNB-78) was 92.5 µM (inactive) and the GI50 (DMS-114) was > 100 µM (inactive). For the same compound, the GI50 (DLD-1) was > 100 µM (inactive), the GI50 (M19-MEL) was > 100 µM (inactive) and the GI50 (HOP-18) was > 100 µM (inactive). The GI50 (XF498) was > 100 µM (inactive).

`CSC(=S)N/N=C/c1nccc2ccccc12` was tested, and the GI50 (RXF 631) was 4.69 µM (inactive), the GI50 (SNB-78) was 3.18 µM (inactive) and the GI50 (DMS-114) was 0.627 µM (active). The GI50 (DLD-1) was 0.537 µM (active), the GI50 (M19-MEL) was 2.29 µM (inactive) and the GI50 (HOP-18) was 1.82 µM (inactive). The GI50 (XF498) was 0.809 µM (active) and the GI50 (KM-20L2) was 0.43 µM (active).
